Source: article PMC7954794, “Protein context shapes the specificity of SH3 domain-mediated interactions in vivo” (Nature Communications, 2021)

Columns and labels:
Format in all cases: cell-based, Saccharomyces cerevisiae
[1] = tested on: PPIs identified as affected by the SH3 domain deletions; assay: Liquid DHFR-PCA low-throughput validation of PPIs affected by SH3 deletion (Fig. S1D-E); conditions: label = prey, liquid DHFR-PCA, prey _1 = lost, _2 = gained in screen
Protocol: Liquid DHFR-PCA low-throughput experiments were performed to validate the PPIs identified as affected by the SH3 domain deletions in the high-throughput solid DHFR-PCA screen (256 PPIs weaker or lost and 116 PPIs stronger or gained following domain deletions). Mating and the diploid selection were performed as described for the large-scale experiment, with the exception that the plates were in 384 formats. Following the second diploid selection, diploid cells were inoculated in a 96 v-shaped well plate using a robotically manipulated 96 pin tool in a synthetic complete medium with MSG at pH 6.0 with NAT and HPH. After 48 h of growth, optical density (OD) was read using a TECAN Infinite F200 Pro, and dilutions to 1 OD in sterile nanopure water were prepared. Cells were then diluted to 0.1 OD by combining 25 µl of cell suspension at OD = 1 and 225 µl of PCA selection media without agar in a 96-wells plate. Plates were incubated at 30 °C in a TECAN Infinite M Nano and OD was monitored each 15 min for 72 h.

[2] = tested on: ABP1; assay: DHFR-PCA on solid medium, bait ABP1 (Fig. 1B); conditions: bait ABP1, label = prey; for medrep (log2 median colony size normalized to plate background, PCA score): 2-4 replicates; for Ratio (SH3-deleted/WT medrep): only significant differences showed, PPIs completely lost have a ratio of 0.1 and the gained PPIs 2.5
Description: Supplement 41467_2021_21873_MOESM8_ESM.xlsx, sheet "Fig1B" | column: medsize; medrep; Ratio; Score

[3] = tested on: Abp1 PPIs; assay: DHFR-PCA of Abp1 SH3-swapped baits (Fig. 2B-D, S2C, S2F); conditions: Fig2B; bait ABP1, label = prey; Replicates 4
Description: Having determined that multiple PPIs require SH3s, we asked whether the latter establish PPI specificity independently from their host proteins by swapping domains (Fig. 2A). Using the second round of genome editing, we individually replaced Abp1 SH3 with the 27 yeast SH3s and 3 human Abp1 orthologs’ SH3s (CTTN, HCLS1, and DBNL, Fig. 2B). The reintroduction of its own SH3 (Abp1SH3 in Abp1) reconstitutes almost perfectly Abp1’s interaction profile (Kendall’s τ = 0.93, Fig. 2B). […] No homologous SH3 domain fully re-establishes the normal Abp1 PPI profile (Fig. 2B and Supplementary Fig. 2C). However, we observe a significant correlation (cophenetic correlation = 0.20, p value = 0.005, Fig. 2C) between the similarity of PPI profiles (Fig. 2B) and the sequence similarity of the SH3s. […] Nonetheless, a subset of SH3-dependent PPIs is only observed with the endogenous domain. For instance, Hua2 and App1, both well-characterized partners of Abp1[14],[18],[19], are only detected when Abp1 contains its own SH3 (WT or swapped via editing). A given SH3 may therefore not be fully replaceable with other paralogous or orthologous domains. This pattern is confirmed by cellular growth phenotypic analyses (Supplementary Fig. 2D, E). PPIs, SH3 sequence similarity, and growth profiles under stress conditions are correlated (Supplementary Fig. 2D, E). This relationship is particularly clear when analyzing growth on media supplemented with hygromycin.
The stuffing of YSC84 SH3 rendered the strain sterile and was therefore not used for this study as the assays require crosses. For genes containing two SH3s (BZZ1 and BEM1), a combination of this first stuffer with a second one ([…]) coding for a highly similar linker ([…]) was used, which allowed targeting each SH3 position independently. The two N-terminal domains of SLA1, which are separated by six nucleotides, were stuffed by a single stuffer. Cells containing pCAS were selected via the G418 resistance cassette from the plasmid on YPD plates (YPD + NAT 100 μg/ml (DHFR F[1,2] selection) + G418 200 µg/mL (Bioshop Canada)). Colonies were randomly selected and grown in YPD media without G418 to allow plasmid loss. The correct insertion of the stuffer was validated by PCR and Sanger sequencing. The SH3-swapped, -shuffled, and -mutated strains were constructed following a second CRISPR–Cas9 editing step with the same procedures. The stuffer sequences were targeted by specific gRNAs (one gRNA per stuffer) and replaced by PCR amplified specific SH3 (with 40 bp homology arms) or libraries of mutated SH3 domains for Deep Mutational Scanning (DMS) with 78 bp flanking homology regions. Validation of the SH3 domain insertions was done as we previously described except for DMS libraries (see below).
The overall DHFR-PCA pipeline is based on Tarassov et al.[43] and the procedures have also been published as a visualized protocol. The screens were performed with robotically manipulated pin tools (BM5-SC1, S&P Robotics Inc.). First, the preys were cherry-picked from 96-well plates to omnitrays in a 384 format on YPD + HPH solid media. Plates were then combined into the 1536 format on YPD + HPH. The array was constituted of 575 preys previously shown to interact physically with at least one SH3-containing protein as reported in BioGRID V3.4.16 along with 40 negative controls. The prey array comprised a border of control strains of two rows and two columns corresponding to the PPI between LSM8-DHFR F[1,2] and CDC39-DHFR F[3]. This double border was used to remove border effects. Preys are present in duplicate at a randomized position in the 1536 array (except for YAL041W which is present four times per array). Baits were crossed with two prey plates, resulting in four independent bait–prey tests for each PPI. Baits were grown in liquid YPD + NAT and then transferred on solid YPD + NAT omnitrays. They were then replicated on YPD + NAT omnitrays in 1536 array format. […]

## YAL005C_2
[1]; bait BOI1
  Ratio (Deletedscore / WTscore): 0.8346
[1]; bait CYK3
  Ratio (Deletedscore / WTscore): 1.208
[1]; bait HOF1
  Ratio (Deletedscore / WTscore): 1.323
[1]; bait
  Ratio (Deletedscore / WTscore): 1.478

## YBL017C
[2]
  medrep (log2 median colony size normalized to plate background, PCA score): 2.711
  Ratio (SH3-deleted/WT medrep): 1.6455
[3]
  medrep (log2 median colony size normalized to plate background): 1.647
  medsize (median colony size): 447.5

## YBL017C_2
[1]; bait ABP1
  Ratio (Deletedscore / WTscore): 1.35
[1]; bait LSB3
  Ratio (Deletedscore / WTscore): 1.844

## YBR109C_1
[1]; bait MYO5
  Ratio (Deletedscore / WTscore): 0.9988

## YBR234C_1
[1]; bait BUD14
  Ratio (Deletedscore / WTscore): 0.744

## YDL229W_1
[1]; bait CDC25
  Ratio (Deletedscore / WTscore): 0.6311

## YDL229W_2
[1]; bait BOI1
  Ratio (Deletedscore / WTscore): 1.5

## YDR170C
[2]
  medrep (log2 median colony size normalized to plate background, PCA score): 2.657
  Ratio (SH3-deleted/WT medrep): 1.547

## YDR170C_1
[1]; bait RVS167
  Ratio (Deletedscore / WTscore): 0.751

## YDR170C_2
[1]; bait ABP1
  Ratio (Deletedscore / WTscore): 1.267
[1]; bait LSB3
  Ratio (Deletedscore / WTscore): 1.852

## YDR265W_2
[1]; bait BEM1-1
  Ratio (Deletedscore / WTscore): 1.494
[1]; bait
  Ratio (Deletedscore / WTscore): 1.155

## YER155C_1
[1]; bait BOI1
  Ratio (Deletedscore / WTscore): 0.8689
[1]; bait BOI2
  Ratio (Deletedscore / WTscore): 0.775
[1]; bait BUD14
  Ratio (Deletedscore / WTscore): 0.7098

## YER166W_1
[1]; bait RVS167
  Ratio (Deletedscore / WTscore): 0.4913

## YGL206C_1
[1]; bait BBC1
  Ratio (Deletedscore / WTscore): 0.7295
[1]; bait BOI1
  Ratio (Deletedscore / WTscore): 1.003
[1]; bait HOF1
  Ratio (Deletedscore / WTscore): 0.9141

## YGL206C_2
[1]; bait BEM1-2
  Ratio (Deletedscore / WTscore): 1.078
[1]; bait BZZ1-1
  Ratio (Deletedscore / WTscore): 0.8702
[1]; bait BZZ1-2
  Ratio (Deletedscore / WTscore): 1.646

## YIL062C_1
[1]; bait BZZ1-1
  Ratio (Deletedscore / WTscore): 0.7418

## YIL062C_2
[1]; bait HSE1
  Ratio (Deletedscore / WTscore): 1.213

## YKL013C_1
[1]; bait BZZ1-1
  Ratio (Deletedscore / WTscore): 0.9908
[1]; bait BZZ1-2
  Ratio (Deletedscore / WTscore): 1.121
[1]; bait MYO5
  Ratio (Deletedscore / WTscore): 0.8543

## YLL040C_1
[1]; bait LSB3
  Ratio (Deletedscore / WTscore): 0.505

## YLR370C_1
[1]; bait BZZ1-1
  Ratio (Deletedscore / WTscore): 0.6354

## YOR181W_1
[1]; bait BBC1
  Ratio (Deletedscore / WTscore): 0.634
[1]; bait LSB1
  Ratio (Deletedscore / WTscore): 0.5295
[1]; bait LSB3
  Ratio (Deletedscore / WTscore): 0.6909
[1]; bait MYO3
  Ratio (Deletedscore / WTscore): 0.5123
[1]; bait MYO5
  Ratio (Deletedscore / WTscore): 0.7615
[1]; bait PIN3
  Ratio (Deletedscore / WTscore): 0.5418

## YPR154W (EYVEALYQFDPQQDGDLGLKPGDKVQLLEKLSPEWYKGSCNGRTGIFPANYVKPAF)
[2]
  medrep (log2 median colony size normalized to plate background, PCA score): 1.556

## YPR184W_2
[1]; bait LSB3
  Ratio (Deletedscore / WTscore): 1.832
